Assay results: the supplement of paper PMC11208160

Experiment: recombinant UMI read abundance after kanamycin selection (control-corrected) (log10(CPM+1)); higher = more efficient recombination; extreme values may be limits of the assay; sequences stand for … in AGTGCAGAGAAAATCGGCCAGTTTTCTCTGCCTGCAGTCCGCATGCCGTGGGACCCCTTGGGTTCTAACCTGTTGCCTAGATTTATGCAGCGGACTGCCTTTCTCCCAAAGTGATAAACCGG…AGGTTGGTTTCACT; site = the 11-nt donor
Method in brief: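 Counts of recombinant UMIs were reported as log10(CPM+1). Before that, they were converted to CPM, averaged over replicates and scaled using control-derived factors. They came from PCR across the donor–target junction after Escherichia coli carrying the pair library and target plasmid was plated on IPTG (0.07 mM) plus kanamycin, or unselected, in two replicates each.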
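Further: IS621 bridge recombinase in Escherichia coli cells against a fixed T5 target plasmid.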

Sequence | recombinant UMI read abundance (log10)
GCGAACCCATGGACCGGTTTTCCCGGTAATCCGTATTTGAA (site GCGAACCCTTT) | 2.49
GCGAACGCATGGACCGGTTTTCCCGGTAATCCGTATTTGCT (site GCGAACGCTAG) | 2.26
GCGAAGACATGGACCGGTTTTCCCGGTAATCCGTATTTGTT (site GCGAAGACTAA) | 2.37
GCGAAGCCATGGACCGGTTTTCCCGGTAATCCGTATTTGAG (site GCGAAGCCTCA) | 0.0311
GCGAAGCCATGGACCGGTTTTCCCGGTAATCCGTATTTGAG (site GCGAAGCCTCC) | 0.0267
GCGAAGCCATGGACCGGTTTTCCCGGTAATCCGTATTTGAG (site GCGAAGCCTCG) | 0
GCGAAGCCATGGACCGGTTTTCCCGGTAATCCGTATTTGAG (site GCGAAGCCTCT) | 0.00807
GCGAAGCCATGGACCGGTTTTCCCGGTAATCCGTATTTGGG (site ACGAAGCCTCC) | 0.0189
GCGAAGCCATGGACCGGTTTTCCCGGTAATCCGTATTTGGG (site CCGAAGCCTCC) | 0.0227
GCGAAGCCATGGACCGGTTTTCCCGGTAATCCGTATTTGGG (site GAGAAGCCTCC) | 0.00349
GCGAAGCCATGGACCGGTTTTCCCGGTAATCCGTATTTGGG (site GCAAAGCCTCC) | 0.00547
GCGAAGCCATGGACCGGTTTTCCCGGTAATCCGTATTTGGG (site GCCAAGCCTCC) | 0
GCGAAGCCATGGACCGGTTTTCCCGGTAATCCGTATTTGGG (site GCGAAACCTCC) | 0
GCGAAGCCATGGACCGGTTTTCCCGGTAATCCGTATTTGGG (site GCGAACCCTCC) | 0
GCGAAGCCATGGACCGGTTTTCCCGGTAATCCGTATTTGGG (site GCGAAGACTCC) | 0.0597
GCGAAGCCATGGACCGGTTTTCCCGGTAATCCGTATTTGGG (site GCGAAGCCTAC) | 0
GCGAAGCCATGGACCGGTTTTCCCGGTAATCCGTATTTGGG (site GCGAAGCCTCA) | 0.00806
GCGAAGCCATGGACCGGTTTTCCCGGTAATCCGTATTTGGG (site GCGAAGCCTCC) | 0.00509
GCGAAGCCATGGACCGGTTTTCCCGGTAATCCGTATTTGGG (site GCGAAGCCTCG) | 0
GCGAAGCCATGGACCGGTTTTCCCGGTAATCCGTATTTGGG (site GCGAAGCCTCT) | 0.00749
GCGAAGCCATGGACCGGTTTTCCCGGTAATCCGTATTTGGG (site GCGAAGCCTGC) | 0
GCGAAGCCATGGACCGGTTTTCCCGGTAATCCGTATTTGGG (site GCGAAGCCTTC) | 0.0136
GCGAAGCCATGGACCGGTTTTCCCGGTAATCCGTATTTGGG (site GCGAAGGCTCC) | 0

Sequence | recombinant UMI read abundance (log10)
GCGAAGCCATGGACCGGTTTTCCCGGTAATCCGTATTTGGG (site GCGAAGTCTCC) | 0.00693
GCGAAGCCATGGACCGGTTTTCCCGGTAATCCGTATTTGGG (site GCGAATCCTCC) | 0.0162
GCGAAGCCATGGACCGGTTTTCCCGGTAATCCGTATTTGGG (site GCGACGCCTCC) | 0.00657
GCGAAGCCATGGACCGGTTTTCCCGGTAATCCGTATTTGGG (site GCGAGGCCTCC) | 0.0307
GCGAAGCCATGGACCGGTTTTCCCGGTAATCCGTATTTGGG (site GCGATGCCTCC) | 0
GCGAAGCCATGGACCGGTTTTCCCGGTAATCCGTATTTGGG (site GCGCAGCCTCC) | 0.011
GCGAAGCCATGGACCGGTTTTCCCGGTAATCCGTATTTGGG (site GCGGAGCCTCC) | 0.0363
GCGAAGCCATGGACCGGTTTTCCCGGTAATCCGTATTTGGG (site GCGTAGCCTCC) | 0.0104
GCGAAGCCATGGACCGGTTTTCCCGGTAATCCGTATTTGGG (site GCTAAGCCTCC) | 0.0212
GCGAAGCCATGGACCGGTTTTCCCGGTAATCCGTATTTGGG (site GGGAAGCCTCC) | 0.0306
GCGAAGCCATGGACCGGTTTTCCCGGTAATCCGTATTTGGG (site GTGAAGCCTCC) | 0.0355
GCGAAGCCATGGACCGGTTTTCCCGGTAATCCGTATTTGGG (site TCGAAGCCTCC) | 0.0116
GCGAATCCATGGACCGGTTTTCCCGGTAATCCGTATTTGGG (site GCGAAACCTCC) | 0.0049
GCGAATCCATGGACCGGTTTTCCCGGTAATCCGTATTTGGG (site GCGAACCCTCC) | 0
GCGAATCCATGGACCGGTTTTCCCGGTAATCCGTATTTGGG (site GCGAAGCCTCC) | 0.23
GCGAATCCATGGACCGGTTTTCCCGGTAATCCGTATTTGGG (site GCGAATCCTCC) | 0.00555
GCGACGCCATGGACCGGTTTTCCCGGTAATCCGTATTTGTC (site GCGACGCCTGA) | 2.1
GCGAGAACATGGACCGGTTTTCCCGGTAATCCGTATTTGCT (site GCGAAAACTAG) | 1.35
GCGAGAACATGGACCGGTTTTCCCGGTAATCCGTATTTGCT (site GCGACAACTAG) | 0
GCGAGAACATGGACCGGTTTTCCCGGTAATCCGTATTTGCT (site GCGAGAACTAG) | 2.24
GCGAGAACATGGACCGGTTTTCCCGGTAATCCGTATTTGCT (site GCGATAACTAG) | 0.492
GCGAGCTCATGGACCGGTTTTCCCGGTAATCCGTATTTGGG (site GCGAGCTCTCC) | 0.714
GCGATCCCATGGACCGGTTTTCCCGGTAATCCGTATTTGCG (site GCGATCCCTCG) | 1.71

Sequence | recombinant UMI read abundance (log10)
GCGCCCTCATGGACCGGTTTTCCCGGTAATCCGTATTTGGC (site TGAAGTCCTCT) | 0.0178
GCGCCGACATGGACCGGTTTTCCCGGTAATCCGTATTTGAC (site GCGCCGACTGT) | 2.07
GCGCGAACATGGACCGGTTTTCCCGGTAATCCGTATTTGAC (site GCGCGAACTGT) | 1.77
GCGCGCGCATGGACCGGTTTTCCCGGTAATCCGTATTTGGA (site GCGCGCGCTTC) | 0.527
GCGCGGGCATGGACCGGTTTTCCCGGTAATCCGTATTTGGC (site GCGCGGGCTGC) | 2.54
GCGCTAACATGGACCGGTTTTCCCGGTAATCCGTATTTGAC (site GCGCTAACTGT) | 2.61
GCGCTAGCATGGACCGGTTTTCCCGGTAATCCGTATTTGCA (site GCGCTAGCTTG) | 2.2
GCGCTGGCATGGACCGGTTTTCCCGGTAATCCGTATTTGCG (site GCGCTGGCTCG) | 0.891
GCGGAATCATGGACCGGTTTTCCCGGTAATCCGTATTTGTT (site GCGGAATCTAA) | 2.76
GCGGAGCCATGGACCGGTTTTCCCGGTAATCCGTATTTGGG (site GCGAAGCCTCC) | 0.0138
GCGGAGCCATGGACCGGTTTTCCCGGTAATCCGTATTTGGG (site GCGCAGCCTCC) | 0
GCGGAGCCATGGACCGGTTTTCCCGGTAATCCGTATTTGGG (site GCGGAGCCTCC) | 0.0323
GCGGAGCCATGGACCGGTTTTCCCGGTAATCCGTATTTGGG (site GCGTAGCCTCC) | 0.0221
GCGGAGGCATGGACCGGTTTTCCCGGTAATCCGTATTTGAG (site GCGGAGGCTCT) | 1.89
GCGGCCCCATGGACCGGTTTTCCCGGTAATCCGTATTTGAT (site GCGGCCCCTAT) | 0.00951
GCGGCGACATGGACCGGTTTTCCCGGTAATCCGTATTTGGC (site GCGGCGACTGC) | 1.99
GCGGGTGCATGGACCGGTTTTCCCGGTAATCCGTATTTGTA (site GCGGGTGCTTA) | 2.6
GCGTAATCATGGACCGGTTTTCCCGGTAATCCGTATTTGCC (site GCGTAATCTGG) | 2.11
GCGTACGCATGGACCGGTTTTCCCGGTAATCCGTATTTGTT (site GCGTACGCTAA) | 1.84
GCGTAGCCATGGACCGGTTTTCCCGGTAATCCGTATTTGGG (site GCGAAGCCTCC) | 0.00823
GCGTAGCCATGGACCGGTTTTCCCGGTAATCCGTATTTGGG (site GCGCAGCCTCC) | 0.00818
GCGTAGCCATGGACCGGTTTTCCCGGTAATCCGTATTTGGG (site GCGGAGCCTCC) | 0.0167
